This passage reports melting point results from patent US6544985B2, “Dihydro-benzo [b][1,4]diazepin-2-one derivatives” (Hoffman-La Roche Inc., priority 2001, dated 2003).

For the compound `CN(C)c1cc2c(cc1C(F)(F)F)NC(=O)CC(c1cccc(-c3cc(CN4CCCC4)no3)c1)=N2` [Example 53, 7-Dimethylamino-4-[3-(3-pyrrolidin-1-ylmethyl-isoxazol-5-yl)-phenyl]-8-trifluoromethyl-1,3-dihydro-benzo[b][1,4]diazepin-2-one], the melting point (as a rule, the temperature, or range, at which the solid turns liquid) stood at 160 °C.
As for `CN(C)Cc1cc(-c2cccc(C3=Nc4cc(N(C)C)c(C(F)(F)F)cc4NC(=O)C3)c2)on1` [Example 55, 7-Dimethylamino-4-[3-(3-dimethylaminomethyl-isoxazol-5-yl)-phenyl]-8-trifluoromethyl-1,3-dihydro-benzo[b][1,4]diazepin-2-one], the melting point was found to be 160 °C.
`N#Cc1cc(C2=Nc3cc(N4CCCC4)c(F)cc3NC(=O)C2)ccn1` [Example 56, 4-(7-Fluoro-4-oxo-8-pyrrolidin-1-yl-4,5-dihydro-3H-benzo[b][1,4]diazepin-2-yl)-pyridine-2-carbonitrile] had a melting point of 278 to 279 °C.
Consider `Cc1cc(-c2cccc(C3=Nc4cc(N5CCCC5)c(F)cc4NC(=O)C3)c2)on1` [Example 57, 8-Fluoro-4-[3-(3-methyl-isoxazol-5-yl)-phenyl]-7-pyrrolidin-1-yl-1,3-dihydro-benzo[b][1,4]diazepin-2-one], for which the melting point came to 236 °C.
For the compound `O=C1CC(c2cccc(-n3nncc3CO)c2)=Nc2cc(N3CCCC3)c(F)cc2N1` [Example 58, 8-Fluoro-4-[3-(5-hydroxymethyl-[1,2,3]triazol-1-yl)-phenyl]-7-pyrrolidin-1-yl-1,3-dihydro-benzo[b][1,4]diazepin-2-one], the melting point lay in the range of 184 to 185 °C.
With `N#Cc1cc(C2=Nc3cc(N4CCC4)c(Cl)cc3NC(=O)C2)ccn1` [Example 59, 4-(8-Azetidin-1-yl-7-chloro-4-oxo-4,5-dihydro-3H-benzo[b][1,4]diazepin-2-yl)-pyridine-2-carbonitrile], the melting point amounted to 276 °C.
`O=C1CC(c2cccc(-c3cc(CO)on3)c2)=Nc2cc(N3CCCC3)c(C(F)(F)F)cc2N1` [Example 60, 4-[3-(5-Hydroxymethyl-isoxazol-3-yl)-phenyl]-7-pyrrolidin-1-yl-8-trifluoromethyl-1,3-dihydro-benzo[b][1,4]diazepin-2-one] came in with a melting point of 206 to 208 °C.
Consider `N#Cc1cc(C2=Nc3cc(N4CCC4)c(C(F)(F)F)cc3NC(=O)C2)ccn1` [Example 61, 4-(8-Azetidin-1-yl-4-oxo-7-trifluoromethyl-4,5-dihydro-3H-benzo[b][1,4]diazepin-2-yl)-pyridine-2-carbonitrile], for which the melting point came out at 241 °C.
For `Cc1cc(-c2cccc(C3=Nc4cc(N5CCC5)c(C(F)(F)F)cc4NC(=O)C3)c2)on1` [Example 62, 7-Azetidin-1-yl-4-[3-(3-methyl-isoxazol-5-yl)-phenyl]-8-trifluoromethyl-1,3-dihydro-benzo[b][1,4]diazepin-2-one], the melting point is 239 °C (dec.).
In the case of `O=C1CC(c2cccc(-n3nncc3CO)c2)=Nc2cc(N3CCC3)c(C(F)(F)F)cc2N1` [Example 63, 7-Azetidin-1-yl-4-[3-(5-hydroxymethyl-[1,2,3]triazol-1-yl)-phenyl]-8-trifluoromethyl-1,3-dihydro-benzo[b][1,4]diazepin-2-one] it was 202 °C (dec.); in that of `CN(C)c1cc2c(cc1C(F)(F)F)NC(=O)CC(c1cccc(-n3cccn3)c1)=N2` [Example 64, 7-Dimethylamino-4-(3-pyrazol-1-yl-phenyl)-8-trifluoromethyl-1,3-dihydro-benzo[b][1,4]diazepin-2-one], 176 °C.
In turn, `CN(C)c1cc2c(cc1C(F)(F)F)NC(=O)CC(c1cccc(-n3cnnc3)c1)=N2` [Example 65, 7-Dimethylamino-4-(3-[1,2,4]triazol-4-yl-phenyl)-8-trifluoromethyl-1,3-dihydro-benzo[b][1,4]diazepin-2-one] showed a melting point of 247 to 250 °C.
